Measured values published in article PMC4520234 (Journal of medicinal chemistry, 2015).
Blank lines part the entries; values can stand above or below the compound they belong to.

How the values were obtained:
mice [1] = assay: In vivo tolerability in mice, intraperitoneal injection
[2] = dogs, cited from earlier work
mice [3] = details: cited from earlier work
[4] = Zinc binding by EGTA titration; details: EGTA 7.3 mM, PAC-1 derivative 100 μM, Zn(OTf)2 titration, ex. 410 nm, em. 475 nm
[5] = Pharmacokinetics in mice, 25 mg/kg IV injection or oral gavage; type: in vivo, mouse; details: 25 mg/kg IV (n = 2)
[6] = i.p. injection 200 mg/kg, graded mild, moderate, severe, or lethal

SMILES: C=CCc1cccc(/C=N/NC(=O)CN2CCN(C(=O)c3ccc(F)cc3)CC2)c1O [Compound 7, N′-[2-Hydroxy-3-(2-propenyl)phenylmethylene]-4-(4-fluorobenzoyl)-1-piperazineacetohydrazide]
- mouse toxicity IP 200 mg/kg (mice [1]; [6]): moderate

SMILES: O=C(CN1CCN(C(=O)c2ccc(C(F)(F)F)cc2)CC1)N/N=C/c1cc(F)ccc1O [Compound 27, N′-(5-Fluoro-2-hydroxyphenylmethylene)-4-[4-(trifluoromethyl)benzoyl]-1-piperazineacetohydrazide]
- mouse toxicity IP 200 mg/kg (mice [1]; [6]): moderate

SMILES: C=CCc1cc(F)cc(/C=N/NC(=O)CN2CCN(C(=O)c3ccccc3)CC2)c1O [Compound 30, N′-[5-Fluoro-2-hydroxy-3-(2-propenyl)phenylmethylene]-4-benzoyl-1-piperazineacetohydrazide]
- mouse toxicity IP 200 mg/kg (mice [1]; [6]): moderate

SMILES: C=CCc1cc(F)cc(/C=N/NC(=O)CN2CCN(C(=O)c3ccc(F)cc3)CC2)c1O [Compound 34, N′-[5-Fluoro-2-hydroxy-3-(2-propenyl)phenylmethylene]-4-(4-fluorobenzoyl)-1-piperazineacetohydrazide]
- mouse toxicity IP 200 mg/kg (mice [1]; [6]): severe

SMILES: CCCc1cc(F)cc(/C=N/NC(=O)CN2CCN(C(=O)c3ccc(F)cc3)CC2)c1O [Compound 43, N′-(5-Fluoro-2-hydroxy-3-propylphenylmethylene)-4-(4-fluorobenzoyl)-1-piperazineacetohydrazide]
- mouse toxicity IP 200 mg/kg (mice [1]; [6]): severe

SMILES: C=CCc1cccc(/C=N/NC(=O)CN2CCN(Cc3ccccc3)CC2)c1O [PAC-1, Procaspase-Activating Compound 1]
- in vivo half-life ([2]; IV administration): 2.1 ± 0.3 h
- serum concentration achieved with few adverse events [2]: approximately 10 μM
- serum concentration achieved with few adverse events (mice [3]): approximately 10 μM
- maximum tolerated dose (mice [3]; intraperitoneal injection): 200 mg/kg
- mouse toxicity IP 200 mg/kg (mice [1]; mouse, in vivo, ip, 200 mg/kg): severe

- Zn^2+ Kd [4]: does not bind zinc
SMILES: O=C(CN1CCN(Cc2ccccc2)CC1)N/N=C/c1ccccc1 [PAC-1a]

- time post-treatment up to which compound is detectable in serum [5]: 6 h
SMILES: C=CCc1cccc(/C=N/NC(=O)CN2CCN(Cc3ccc(S(N)(=O)=O)cc3)CC2)c1O [S-PAC-1]
